Measured values: paper PMC8230565, “Bisavenathramide Analogues as Nrf2 Inductors and Neuroprotectors in In Vitro Models of Oxidative Stress and Hyperphosphorylation” (Antioxidants, 2021)

Tests used:
Format in all cases: cell-based
HO-1 = HO-1 immunofluorescence in SH-SY5Y cells treated with okadaic acid; conditions: 10 µM, OA 20 nM, 8 h
Procedure: (§1) AREc32 or SH-SY5Y cells were seeded in 24 multiwell plates (40,000 or 100,000 cells per well, respectively) on poly-D-Lysine coated crystal slides. AREc32 cells were incubated for 1 h with the compounds under assay, and were then fixed by treatment with a 4% solution of paraformaldehyde in PBS for 15 min, followed by three washings with PBS in 5 min intervals. SH-SY5Y cells were treated with compounds during 24 h, and then co-incubated with medium (basal), okadaic acid (OA, 20 nM), or OA plus compound 3i (10 μM). Thereafter, cells were permeabilized by treatment with 0.5% Triton X-100 for 5 min, followed by three washings with PBS, and were incubated overnight with primary antibody anti-Nrf2 (ARE, 1:50, A-10, sc-365949, Santa Cruz Biotechnology, Dallas, TX, USA), anti-pTau AT8 (1:400, MN1020, Thermofisher, Madrid, Spain), and anti-HO-1 (1:400, Ab13243, Abcam, Madrid, Spain). After three washes with PBS, the cells were incubated with secondary antibodies (1:800, 1 h). In order to visualize the nuclei, the cells were counterstained during the second wash with 5 μg·mL^−1 of Hoechst 33342 (Invitrogen, Madrid, Spain). […]
(§2) Finally, we evaluated the capacity of compound 3i to reduce tau hyperphosphorylation in the SH-SY5Y cellular line induced by okadaic acid (OA). […]

[1] = test system: AT8 (Ser202, Thr205 phospho-Tau); test: Phospho-tau (AT8) immunofluorescence in SH-SY5Y cells treated with okadaic acid; conditions: 10 µM, OA 20 nM, 8 h
Procedure: as §1, §2

SH-SY5Y cells = test: Total ROS production (H2DCFDA) in SH-SY5Y cells under R/O; conditions: 0.1, 1 and 10 µM; R/O 6 h
Procedure: ROS production was evaluated using the fluorescent dye H2DCFDA [20]. Briefly, after deacetylation inside the cell, the H2DCF derivative is able to react with oxygen-free radicals and is transformed into dichlorofluorescein, increasing its fluorescence intensity. SH-SH5Y cells were seeded in 96-well clear-bottom black plates 6 × 10^4 cells/well. After 24 h, cells were treated with compound 3i at the desired concentrations for 24 h. Treatments were then eliminated and the cells were loaded with H2DCFDA (10 μM) for 45 min. […] Fluorescence was evaluated in a fluorescence microplate reader (Fluostar optima; BMG Labtech, Ortenberg, Baden-Württemberg, Germany) at 485/520 excitation/emission wavelengths, respectively. […]
To further evaluate its mechanism of action, and considering the importance of exacerbated oxidative stress in neurodegenerative diseases, we evaluated its capacity to reduce free radical species production using the above-mentioned R/O toxic combination to generate ROS and measure the influence of 3i in the total ROS production by using the H2DCFDA dye, and also the specific superoxide production by using the selective dye dihydroetidium (DHE). […]

NQO1 = test: Western blot of Nrf2-dependent protein expression in AREc32 cells: NQO1; conditions: 30 μM, 24 h
Procedure: AREc32 cells were collected from plates after 24 h of treatment with the selected compound at 30 µM. Then, they were lysed in ice-cold lysis buffer (1% Nonidet P-40, 10% glycerol, 137 mM NaCl, 20 mM Tris HCl pH 7.5, 1 μg/mL leupeptin, 1 mM phenylmethylsulfonyl fluoride, 20 mM NaF, 1 mM sodium pyrophosphate, and 1 mM Na3VO4). After this treatment, proteins (30 μg) were resolved by gel electrophoresis on sodium dodecyl sulfate–polyacrylamide (12%) and transferred to Immobilon-P membranes (MilliporeSigma, Burlington, MA, USA). The membranes were incubated with anti-GCLc (1:1000, Ab41463 (Abcam, Cambridge, MA, USA), anti−HMOX1 (1:1000, ab68477, Abcam), anti-NQO1 (1:1000, 11451-1-AP, Proteintech, Manchester, UK), or anti-β-Actin (1:100,000, A3854, Merck, Madrid, Spain). Peroxidase-conjugated secondary antibodies (1:10,000 and anti-rabbit: SC-2357, Santa Cruz Biotechnology, Dallas, TX, USA) were employed to detect the proteins by enhanced chemoluminescence. Band intensities corresponding to immunoblot detection of protein samples were quantitated with Fiji software.
Figure 4 Compound 3g effectively induces Nrf2 translocation and overexpression of Nrf2-ARE dependent genes in AREc32 cells. […] (B) Nrf2 nuclear localization analysis, measured as integrated intensity localized at the nucleus. HMOX1 (C) and NQO1 (D) expression in AREc32, measured by Western blot analysis. […]

Nrf2 = Nrf2 nuclear translocation, immunocytochemistry in AREc32 cells; conditions: 30 μM, 1 h
Procedure: AREc32 or SH-SY5Y cells were seeded in 24 multiwell plates (40,000 or 100,000 cells per well, respectively) on poly-D-Lysine coated crystal slides. AREc32 cells were incubated for 1 h with the compounds under assay, and were then fixed by treatment with a 4% solution of paraformaldehyde in PBS for 15 min, followed by three washings with PBS in 5 min intervals. SH-SY5Y cells were treated with compounds during 24 h, and then co-incubated with medium (basal), okadaic acid (OA, 20 nM), or OA plus compound 3i (10 μM). […]
Figure 4 Compound 3g effectively induces Nrf2 translocation and overexpression of Nrf2-ARE dependent genes in AREc32 cells. […] (B) Nrf2 nuclear localization analysis, measured as integrated intensity localized at the nucleus. HMOX1 (C) and NQO1 (D) expression in AREc32, measured by Western blot analysis. Cells were treated with compound 3g (30 µM), sulforaphane (10 µM), or culture medium (basal) for 24 h and protein expression was then assessed. Graphs are expressed as densitometric quantification using β-actin for normalization (bottom). […] Data are expressed as mean ± S.E.M. of six independent experiments. […]

| SMILES | increase of HO-1 levels compared to basal levels (HO-1) [%] | phospho-tau levels [1] | total ROS production (H2DCFDA) (SH-SY5Y cells) | NQO1 protein levels (NQO1) | Nrf2 distribution in cells (Nrf2) |
| --- | --- | --- | --- | --- | --- |
| COC(=O)C1=C(C)N(CCc2ccccc2)C(=O)/C1=C\c1ccc(O)c(O)c1 [Compound 3i, Methyl (Z)-4-(3,4-Dihydroxybenzylidene)-2-methyl-5-oxo-1-phenethyl-4,5-dihydro-1H-pyrrole-3-carboxylate] | 46 | significantly reduced phopho-tau levels to basal levels | reduce ROS production almost to basal levels at all concentrations tested |  |  |
| COC(=O)C1=C(C)N(CCc2ccccc2)C(=O)/C1=C\c1cc(OC)c(OC)c(OC)c1 [Compound 3g, Methyl (Z)-2-Methyl-5-oxo-1-phenethyl-4-(3,4,5-trimethoxybenzylidene)-4,5-dihydro-1H-pyrrole-3-carboxylate] |  |  |  | significantly increased | predominately nuclear distribution of Nrf2 |
